Converted amounts (≈) assume the structure as drawn. Like-named read-outs stand apart in the source and are kept apart here.
Key:
K aerogenes E70 [1] = experiment: Antibacterial activity, standard MIC test; assay type: cell-based; details: Klebsiella aerogenes, compound alone
From the text: (§1) Using conventional methods the following results were obtained in a standard MIC test: […]

St aureus Russell [2] = experiment: Antibacterial activity, standard MIC test; assay type: cell-based; details: Staphylococcus aureus, compound alone
From the text: as §1

E coli JT39 [3] = experiment: Antibacterial activity, standard MIC test; assay type: cell-based, Escherichia coli; details: compound alone
From the text: as §1

E coli JT39 [4] = experiment: Synergistic activity with amoxycillin, standard MIC test; assay type: cell-based, Escherichia coli; details: amoxycillin alone
From the text: (§2) Synergistic Activity with Amoxycillin
as §1

St aureus Russell [5] = experiment: as above; assay type: cell-based, Staphylococcus aureus; details: amoxycillin alone
From the text: as §2, §1

K aerogenes E70 [6] = experiment: as above; assay type: cell-based, Klebsiella aerogenes; details: amoxycillin alone
From the text: as §2, §1

[7] = Escherichia coli, read-out: MIC

MIC (K aerogenes E70 [1]) | MIC (St aureus Russell [2]) | MIC (E coli JT39 [3]; [7]) | MIC amoxycillin (E coli JT39 [4]) | MIC amoxycillin (St aureus Russell [5]) | MIC amoxycillin (K aerogenes E70 [6]) | SMILES | MIC (E coli JT39 [3])
250 µg/mL (≈ 838 µM) | 31 µg/mL (≈ 104 µM) | 62.5 µg/mL (≈ 210 µM) | – | – | – | O=C(O)CCCCNC/C=C1\O[C@@H]2CC(=O)N2[C@H]1C(=O)O [3(c), 9-N-(4'-Carboxybutyl)aminodeoxyclavulanic acid] | –
250 µg/mL (≈ 879 µM) | 62.5 µg/mL (≈ 220 µM) | 31 µg/mL (≈ 109 µM) | – | – | – | O=C(O)CCCNC/C=C1\O[C@@H]2CC(=O)N2[C@H]1C(=O)O [10(b), 9-N-(3'-Carboxypropyl)aminodeoxyclavulanic acid] | –
> 500 µg/mL | 31 µg/mL (≈ 115 µM) | 15 µg/mL (≈ 55.5 µM) | – | – | – | O=C(O)CCNC/C=C1\O[C@@H]2CC(=O)N2[C@H]1C(=O)O [1(b), 9-N-(2'-Carboxyethyl)aminodeoxyclavulanic acid] | –
– | – | – | 2000 µg/mL | 500 µg/mL | 500 µg/mL | CC1(C)S[C@@H]2[C@H](NC(=O)[C@H](N)c3ccc(O)cc3)C(=O)N2[C@H]1C(=O)O [Amoxycillin] | –
250 µg/mL (≈ 752 µM) | 4 µg/mL (≈ 12 µM) | 31 µg/mL (≈ 93.3 µM) | – | – | – | O=C(O)c1ccc(CNC/C=C2\O[C@@H]3CC(=O)N3[C@H]2C(=O)O)cc1 [4(c), 9-N-(4'-Carboxybenzyl)aminodeoxyclavulanic acid] | –
250 µg/mL (≈ 879 µM) | 8 µg/mL (≈ 28.1 µM) | 31 µg/mL (≈ 109 µM) | – | – | – | COC(=O)CCNC/C=C1\O[C@@H]2CC(=O)N2[C@H]1C(=O)O [6(b), 9-N-(2'-Methoxycarbonylethyl)aminodeoxyclavulanic acid] | –
> 500 µg/mL | 8 µg/mL (≈ 20.9 µM) | – | – | – | – | O=C(O)CCCCCCCCCCNC/C=C1\O[C@@H]2CC(=O)N2[C@H]1C(=O)O [11(b), 9-N-(10'-Carboxydecyl)aminodeoxyclavulanic acid] | –
250 µg/mL (≈ 800 µM) | 31 µg/mL (≈ 99.3 µM) | 31 µg/mL (≈ 99.3 µM) | – | – | – | O=C(O)CCCCCNC/C=C1\O[C@@H]2CC(=O)N2[C@H]1C(=O)O [9(b), 9-N-(5'-Carboxypentyl)aminodeoxyclavulanic acid] | –
250 µg/mL (≈ 739 µM) | 16 µg/mL (≈ 47.3 µM) | 31 µg/mL (≈ 91.6 µM) | – | – | – | O=C(O)[C@H]1/C(=C/CNC[C@H]2CC[C@H](C(=O)O)CC2)O[C@@H]2CC(=O)N21 [12(d), 9-N-(trans-4'-Carboxycyclohexylmethyl)aminodeoxyclavulanic acid] | –

SMILES | MIC (K aerogenes E70 [1]) | MIC (St aureus Russell [2]) | MIC (E coli JT39 [3]; [7]) | MIC amoxycillin (E coli JT39 [4]) | MIC amoxycillin (St aureus Russell [5]) | MIC amoxycillin (K aerogenes E70 [6]) | MIC (E coli JT39 [3])
N[C@@H](CCCCNC/C=C1\O[C@@H]2CC(=O)N2[C@H]1C(=O)O)C(=O)O [14(d)] | > 500 µg/mL | 31 µg/mL (≈ 94.7 µM) | – | – | – | – | 125 µg/mL (≈ 382 µM)

Reference: patent US4539202A, “Derivatives of clavulanic acid, a process for their preparation and their use” (Beecham Group p.l.c., priority 1983, dated 1985)
